Columns and labels:
[1] = Metabolic stability in human liver microsomes; format: in vitro ADME; conditions: both sexes, pooled liver microsomes, pH 7.4, 0.5 mg/ml protein, read-out: T1/2 LM human
Procedure: (§1) Sample type: pooled liver or intestine microsomes; Species: CD1-mouse (male), human (mixed gender) Time points: 0, 10, 20, 40, 60 min cofactors, and negative control;
(§2) Protein content: 0.5 mg/ml: Replicates: 2 with cofactors, 1 without cofactors; Cofactors: NADPH (1 mM)+UDPGA (1 mM)+15 μg/ml alamethicin Buffer: 0.1 M phosphate buffer pH 7.4, 2 mM MgCl2; Spiking solvent: 50% DMSO ( 1/100 to incubation); Quenching solvent: 2-fold volume of 75% ACN, Control: midazolam disappearance rate
(§3) The study compounds were incubated with liver or intestine microsomes as specified above. The collected samples were stored at −20 C until thawed at room temperature, centrifuged and analyzed as presented below.
(§4) The samples were analysed by UPLC/HR-MS (with data dependent MS/MS mode) to monitor substrate depletion (and later optionally metabolite formation). The analytical method was optimised by using the parent compound for optimum chromatographic properties (peak shape and retention) and mass spectrometric ionisation. Disappearance rate of the study compound was estimated based on relative LC/MS peak areas (o min marked as 100%), and was used to calculate in vitro half-life and clearance (and in vivo extrapolation of hepatic clearance).

[2] = test system: primary cultures of cerebral cortical astrocytes; experiment: Lactate release assay in astrocyte cultures; format: cell-based, mouse; conditions: various concentrations, 30 minutes after application
Procedure: Primary cultures of cerebral cortical astrocytes were prepared from Swiss albino newborn mice (1-2 days old) as described [Pellerin L, Magistretti P J. Glutamate uptake into astrocytes stimulates aerobic glycolysis: a mechanism coupling neuronal activity to glucose utilization. Proc Natl Acad Sci USA. 1994 Oct. 25; 91(22):10625-9]. This procedure yields cultures that are >95% immunoreactive for glial fibrillary acidic protein.
Astrocytes are emerging as having significant roles in several homeostatic processes in the brain [Zuchero J B, Barres B A. Glia in mammalian development and disease. Development 2015 142: 3805-3809]. To evaluate the potential effects of Compound A (10 μM) on astrocyte metabolism, the uptake of glucose and lactate release were measured 30 minutes after application of compounds to the culture (FIGS. 2 and 3).
Lactate release into the medium was measured enzymatically by a modification of the enzymatic spectrophotometric method of Rosenberg and Rush [Rosenberg J C, Rush B F. An enzymatic-spectrophotometric determination of pyruvic and lactic acid in blood. Methodologic aspects. Clin Chem. 1966; 12(5):299-307.]. Incubations were carried out exactly as described for [3H]2DG uptake experiments except for the fact that no tracer and no phenol red (which otherwise interferes with the spectrophotometric determination of lactate) were present in the incubation medium. […]

[3] = Metabolic stability in mouse liver microsomes; format: in vitro ADME; conditions: male, CD1, mouse, pooled liver microsomes, pH 7.4, 0.5 mg/ml protein, read-out: T1/2 LM mouse
Procedure: as §1, §2, §3, §4

Arc, cFos, and Zif268 = experiment: Quantitative PCR of immediate-early genes linked to neuronal plasticity; format: cell-based, mouse; conditions: 1 μM and 10 μM, 1 h and 2 h treatment
Procedure: The effect of Compound A or derivative thereof on the mRNA expression of genes related to plasticity (Arc, cFos, and Zif268) was determined as described. Cox (cytochrome oxidase) was used to evaluate if the derivative changes expression of mitochondrial genes.
Determination of gene expression was performed as previously described [Yang J, et al, Lactate promotes plasticity gene expression by potentiating NMDA signalling in neurons. Proc Natl Acad Sci USA. 2014. 111(33):12228-33]. Total RNA was isolated from cultured cells using Nucleospin RNA II kit (Macherey-Nagel) according to the manufacturer's instructions. The first strand of cDNA was synthesized from 100 ng of total RNA (60 min at 37° C. followed by 5 min at 95° C.) using a high-capacity RNA to cDNA reverse transcription system (Applied Biosystems). One-twentieth of the resulting cDNA was amplified by quantitative PCR (qPCR) with an ABI Prism 7900 system (Applied Biosystems). The PCR mix was composed of 6 ng of cDNA, 300 nM of forward and reverse primers in 10 μL of ix SYBR-Green PCR MasterMix (Applied Biosystems). Primer sequences were designed using Primer Express 3.0 software (Applied Biosystems) and oligonucleotides were synthesized by Microsynth.

[4] = test system: cortical neurons with MPP+ lesion; experiment: MPP+ induced ROS in cortical neurons (DCFDA); format: cell-based, mouse; conditions: 0.5 and 1 μM, 8 h MPP+ lesion
Procedure: Mouse cortical neurons were prepared as described. At DIV8 cells were treated with the test and control MK801 compounds for 1 h, before the addition of MPP+(Sigma, D048) at a final concentration of 100-200 μM. The experiment was carried out with n=6 technical replicates per condition, vehicle and MPP+ alone controls were included. After 8 h determination of ROS was conducted and after 24 h of MPP+ lesion on DIV9 cells were subject to the apoptosis measurement. Apoptosis was determined using YO-PRO™-1 Iodide (Invitrogen; Y3603). Part of supernatant of the cultivated cells was removed and 10 μL of a 50 μM YO-PRO 1 solution in PBS is added to the remaining 90 μL to result in a final concentration of 5 μM YO-PRO 1 in well. Incubation for 15 min in the incubator at 37° C. was performed (light protected) followed by discarding the supernatant. 140 μL PBS was added to each well and the fluorescence was measured using a plate-reader (Cytation 5, BioTek) at excitation wavelength 485 nm to Emission wavelength 535 nm.
ROS generation was measured with Abcam's DCFDA-Cellular Reactive Oxygen Species Detection Assay (ab 113851). […] Cells were then incubated with the test items and lesion for 8 h and thereafter the fluorescent signal was measured at 485 nm/535 nm (Cytation 5, BioTek).

## O=c1cc(-c2ccc(CCCC[P+](c3ccccc3)(c3ccccc3)c3ccccc3)cc2)oc2c(O)c(O)ccc12 [SND118, 4-[4-(7,8-dihydroxy-4-oxo-chromen-2-yl)phenyl]butyltriphenylphosphonium bromide]
[1]
  half-life at 1 μM: 18 min
[2]
  release of L-lactate: increased the release of L-lactate
[3]
  half-life at 1 μM: 23 min
Arc, cFos, and Zif268
  mRNA expression of genes related to plasticity (Arc, cFos, and Zif268): increased
[4]
  level of ROS induced by MPP+ (DCFDA): decreased the level of ROS

Source: US20220411448A1, “CHROMENE-4-ONE DERIVATIVES AS BRAIN-DERIVED NEUROTROPHIC FACTOR (BDNF) MIMETICS” (FLORATEK PHARMA AG, priority 2019, published 2022)
